In patent US10246487B2, “Azaindoline compounds as granzyme B inhibitors” (viDA Therapeutics Inc., priority 2014, dated 2019):

Tests used:
GzmB [1] = target: T1, GzmB (Homo sapiens, UniProt P10144); assay: Inhibition of fibronectin cleavage by GzmB; type: biochemical; conditions: 20 nM granzyme B; for inhibition at 0.62 µM: 0.62 uM inhibitor, read-out: Percent Inhibition at Inhibitor Concentration 0.62 uM; for inhibition at 5.56 µM: 5.56 uM inhibitor, read-out: Percent Inhibition at Inhibitor Concentration 5.56 uM; for inhibition at 50 µM: 50 uM inhibitor, read-out: Percent Inhibition at Inhibitor Concentration 50 uM
T1 sequence (P10144 21-247): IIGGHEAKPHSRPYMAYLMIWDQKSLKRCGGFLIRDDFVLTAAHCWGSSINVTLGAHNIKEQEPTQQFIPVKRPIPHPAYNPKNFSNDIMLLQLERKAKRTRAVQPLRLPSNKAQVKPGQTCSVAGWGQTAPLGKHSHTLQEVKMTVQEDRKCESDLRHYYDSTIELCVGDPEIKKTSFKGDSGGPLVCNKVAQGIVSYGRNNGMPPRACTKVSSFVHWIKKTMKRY
Method: Black, 96 well high-binding assay plates (Griener Bio-one) were treated overnight at 4° C. with 40 uL of 8 ug/mL Hilyte Fluor 488 labeled Fibronectin (Cytoskeleton, Inc). After fibronectin coating, plates were washed 3 times in buffer (20 mM Tris-HCl, pH 7.4, 20 mM NaCl) then once with granzyme B assay buffer (50 mM HEPES, pH 7.5, 0.1% CHAPS). After washing, 50 μL of granzyme B assay buffer was added to each fibronectin-coated well. In a separate non-binding 96 well assay plate 5 μL of 20× inhibitor serial dilution stocks were added to 45 μL of 2.22× GzmB mix to establish inhibition (enzyme/inhibitor mixes were all prepared in granzyme B assay buffer and were incubated first at room temperature for 20 minutes, then at 30° C. for another 10 minutes). After incubation, 50 μL of this 2× enzyme/inhibitor mix was added to the corresponding coated well to initiate fibronectin cleavage (20 nM final granzyme B concentration, 8-point inhibitor dilution series starting at 50 uM). The assay was conducted at 30° C. in the TECAN plate reader (TECAN INFINITE® M1000 Pro), which was programmed to monitor the kinetic fluorescence polarization signal (filter set Ex/Em 470 nm/527 nm) with readings taken every minute, for 1 hour. Proteolytic activity was evaluated as the rate of fluorescence enhancement in the parallel emission over the linear range of the reaction. % Inhibition values were calculated from assay controls and the resulting date is shown in Table 7.

GzmB [2] = target: T1, GzmB; assay: Inhibition of cell detachment by GzmB assay (HDFa fibroblasts, MTS); type: cell-based; conditions: 50 uM inhibitor, 100 nM GzmB, HDFa primary human fibroblasts, 7 hours; read-out: Percent Inhibition of cell detachment at 50uM
Method: HDFa primary human fibroblasts were plated at 10 k/well in 200 ul, approximately 20 hrs before treatment. The next day, controls and 100 nM GzmB (recombinant, human) plus or minus inhibitor treatments were prepared in serum-free media. GzmB and inhibitor were incubated for 20 minutes at RT before adding to cells. Before addition, media and serum was removed from the cells and the cells were washed with PBS (1×), using pipettes to prevent disturbing the cells. Treatment preparations (100 ul) were added to the wells and incubated for 7 hours in a tissue culture incubator. After 7 hours, media and treatments were removed and the cells were washed with PBS (1×) to removed detached cells, using pipettes only. Phase pictures were taken then the PBS was removed and replaced with 100 uL of serum-free media and 20 uL of MTS and the cells were allowed to incubate for 3 hours in a cell culture incubator. After 3 hours the absorbance was read at 490 nm and a percent inhibition value for the treatments with inhibitors was determined from the control wells.

Question: How did the inhibition at 0.62 µM (GzmB [1]) turn out when `CC[C@H](C)[C@H](NC(=O)Cc1nn[nH]n1)C(=O)NCC(=O)N1c2ncccc2C[C@H]1C(=O)NCc1nn[nH]n1` [Example A1, (S)-1-(2-((2S,3S)-2-(2-(2H-tetrazol-5-yl)acetamido)-3-methylpentanamido)acetyl)-N-((2H-tetrazol-5-yl)methyl)-2,3-dihydro-1H-pyrrolo[2,3-B]pyridine-2-carboxamide] was run?
Answer: 66%

Question: What about the inhibition at 5.56 µM (GzmB [1]) of the same compound?
Answer: 82%

Question: And the inhibition at 50 µM (GzmB [1])?
Answer: 88%

Question: What does the source list for `CC[C@H](C)[C@H](NC(=O)CCC(=O)O)C(=O)N[C@@H](CCC(=O)O)C(=O)N1c2ncccc2C[C@H]1C(=O)NCc1nn[nH]n1` [Example C4, (S)-5-((S)-2(((2H-tetrazol-5-yl)methyl)carbamoyl)-2,3-dihydro-1H-pyrrolo[2,3-B]pyridin-1-yl)-4-((2S,3S)-2-(3-carboxypropanamido)-3-methylpentanamido)-5-oxopentanoic acid]?
Answer: inhibition at 50 µM (GzmB [2]): 100%; inhibition at 0.62 µM (GzmB [1]): 45%; inhibition at 5.56 µM (GzmB [1]): 79%; inhibition at 50 µM (GzmB [1]): 98%

Question: For `CC[C@H](C)[C@H](NC(=O)Cc1ccccc1)C(=O)N[C@@H](CCC(=O)O)C(=O)N1c2ncccc2C[C@H]1C(=O)NCc1nn[nH]n1` [Example C9, (S)-5-((S)-2-(((2H-tetrazol-5-yl)methyl)carbamoyl)-2,3-dihydro-1H-pyrrolo[2,3-B]pyridin-1-yl)-4-((2S,3S)-3-methyl-2-(2-phenylacetamido)pentanamido)-5-oxopentanoic acid], which inhibition at 0.62 µM (GzmB [1]) is on record?
Answer: 58%

Question: What about the inhibition at 5.56 µM (GzmB [1]) of the same compound?
Answer: 81%

Question: What about the inhibition at 50 µM (GzmB [1]) of the same compound?
Answer: 91%

Question: What does the source list for `CC(C)[C@H](NC(=O)CCC(=O)O)C(=O)N[C@@H](CCC(=O)O)C(=O)N1c2ncccc2C[C@H]1C(=O)NCc1nn[nH]n1` [Example C17, (S)-5-((S)-2-(((2H-tetrazol-5-yl)methyl)carbamoyl)-2,3-dihydro-1H-pyrrolo[2,3-B]pyridin-1-yl)-4-((S)-2-(3-carboxypropanamido)-3-methylbutanamido)-5-oxopentanoic acid]?
Answer: inhibition at 0.62 µM (GzmB [1]): 56%; inhibition at 5.56 µM (GzmB [1]): 77%; inhibition at 50 µM (GzmB [1]): 94%
